Experimental findings from patent publication US20090253687A1, “Fused Heterocyclic Compounds and Their Use as Mineralocorticoid Receptor Ligands” (priority 2005, published 2009) are described below.

The target of the first data set is T1, Human Mineralocorticoid Receptor (hMR) (Homo sapiens, UniProt P08235).
T1 construct: Full-length cDNA was constructed from two fragments of hMR cDNA amplified separately; expressed in transfected cells; host or cells: FreeStyle 293 cells transiently transfected with pMCMVneo-hMR; supernatant of the freeze-thaw lysate after ultracentrifugation
T1 sequence (P08235 1-984): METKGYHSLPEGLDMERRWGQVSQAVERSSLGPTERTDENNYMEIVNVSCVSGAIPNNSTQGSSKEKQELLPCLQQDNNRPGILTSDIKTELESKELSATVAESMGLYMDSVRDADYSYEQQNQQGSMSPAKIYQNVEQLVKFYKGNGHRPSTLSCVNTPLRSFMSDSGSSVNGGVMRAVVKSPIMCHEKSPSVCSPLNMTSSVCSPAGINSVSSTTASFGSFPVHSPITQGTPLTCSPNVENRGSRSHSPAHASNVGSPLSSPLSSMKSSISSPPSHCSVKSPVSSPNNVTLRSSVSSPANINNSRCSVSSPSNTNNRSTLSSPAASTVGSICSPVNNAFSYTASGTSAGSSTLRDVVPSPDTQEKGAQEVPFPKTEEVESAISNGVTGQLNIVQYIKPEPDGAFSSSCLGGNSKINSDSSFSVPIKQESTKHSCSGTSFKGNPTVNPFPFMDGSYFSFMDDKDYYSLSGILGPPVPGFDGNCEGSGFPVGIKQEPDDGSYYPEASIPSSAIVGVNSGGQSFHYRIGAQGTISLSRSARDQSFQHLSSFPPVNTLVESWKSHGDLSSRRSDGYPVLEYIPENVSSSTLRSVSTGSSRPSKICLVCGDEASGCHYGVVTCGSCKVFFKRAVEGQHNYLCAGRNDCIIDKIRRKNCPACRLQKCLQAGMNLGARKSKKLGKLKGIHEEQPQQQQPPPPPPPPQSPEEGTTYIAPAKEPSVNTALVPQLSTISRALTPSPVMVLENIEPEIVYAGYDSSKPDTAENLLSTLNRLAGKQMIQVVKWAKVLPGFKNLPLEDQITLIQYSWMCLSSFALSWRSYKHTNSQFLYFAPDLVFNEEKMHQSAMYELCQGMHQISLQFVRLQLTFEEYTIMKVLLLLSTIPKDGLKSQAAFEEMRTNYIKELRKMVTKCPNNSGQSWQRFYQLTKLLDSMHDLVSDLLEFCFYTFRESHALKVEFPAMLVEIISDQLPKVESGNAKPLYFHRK
In words: Inhibition of binding of [3H]-aldosterone to hMR (lysate of FreeStyle 293 cells expressing hMR). Particulars: compound at 10^−5 M; 10 nM [3H]-aldosterone; hMR lysate 1.0 mg/ml; 16 hr at 4° C.; read-out: Inhibition rate (at 10^−5 M). On the procedure:
The following procedures described in this Example were carried out according to the methods described in Molecular Cloning—Cold Spring Harbor Laboratory (1989) or protocols specified by manufacturers. (1) Cloning of Human Mineralocorticoid Receptor (hMR) cDNA hMR cDNA was amplified by polymerase chain reaction (PCR) from human kidney cDNA library. Full-length cDNA was constructed from two fragments of hMR cDNA amplified separately. The primers were designed referring to the nucleotide sequence of hMR cDNA reported by Arriza et. al (Science 1987; 237: 268-275). The PCR reactions were carried out using Pyrobest® DNA polymerase (Takara). The PCR products were electrophoresed in agarose gel, and 1.7 kb (region (i)) and 1.5 kb (region (ii)) DNA fragments were recovered. Each DNA fragment was inserted into pCR®4Blunt-TOPO® vector (Invitrogen). The resulting plasmids thus obtained were designated as pB-hMR (i) and pB-hMR (ii). To obtain the full-length hMR cDNA, pB-hMR (i) was digested with XhoI and PvuI, and pB-hMR (ii) was digested with PvuI and KpnI, respectively, and the two cDNA fragments were ligated into pBlueScript®IISK+ vector (Stratagene). The resulting plasmid thus obtained was designated as pB-hMR. (2) Construction of hMR Expression Plasmid pMCMVneo (described in WO03/099793) was digested with XhoI and KpnI, and 5.6 kb fragment was ligated with 2.9 kb hMR cDNA fragment obtained by digestion of pB-hMR (described in above (1)) with XhoI and KpnI. The plasmid thus obtained was designated as pMCMVneo-hMR. (3) Expression of hMR in FreeStyle 293 Cells and Preparation of Cell Lysate FreeStyle 293 cells were inoculated at 1×10^8 cells in 93 ml FreeStyle™ 293 Expression Medium (Invitrogen) in a 500 ml Erlenmeyer flask and cultured at 37° C. under 8% CO2 for 1 hr. The cells were treated with 6.7 ml of the transfection mixture containing 100 μg of pMCMVneo-hMR obtained in above (2) and 133 μl of FreeStyle™ 293 Transfection Reagent (Invitrogen). The transfected cells were cultivated for 48 hr at 37° C. in 8% CO2 atmosphere. The cultivated cells were centrifuged and washed with TEG buffer (10 mM Tris-HCl (pH 7.2), 50 mM EDTA, 10% glycerol), and resuspended in 10 ml TEGM buffer (10 mM Tris-HCl (pH 7.2), 1 mM EDTA, 10% glycerol, 1 mM β-mercaptoethanol, 10 mM sodium molybdate, 1 mM dithiothreitol, 2 tablets/100 ml of protease inhibitor cocktail tablets (Roche)). The cell suspension was frozen with liquid nitrogen and thawed on ice, and ultra-centrifuged at 225,000×g for 20 min at 4° C. The supernatant fraction including hMR (hMR lysate) was collected and stored at −80° C. (4) Measurement of Inhibition Activity Against Binding of hMR and Aldosterone [^3H]-Aldosterone (Amersham Biosciences) as ligand was added at 10 nM to the reaction mixture including test compound at various concentration and hMR lysate (1.0 mg/ml) obtained in above (3) and mixture was filled up to 50.5 μl with TEGM buffer. The reaction mixture was incubated for 16 hr at 4° C. and 35 μl of dextran/gelatin coated charcoal suspension (5% charcoal, 0.5% dextran T-70 (Amersham Biosciences), 0.1% gelatin (SIGMA), 10 mM Tris HCl (pH 7.2), 1 mM EDTA) was added thereto to separate bound and free radioactive aldosterone. The mixture containing charcoal was incubated for 10 min at 4° C. and centrifuged at 910×g for 10 min at 4° C. Radioactivity in 30 μl of the supernatant was measured by TopCount™ (Packard). For the determination of nonspecific binding, cold Aldosterone instead of drug was added to reaction mixture at 100 μM. Specific binding was determined by subtracting nonspecific binding from total binding.
As usually defined, the inhibition is the relative decrease from the control value, in per cent. `Cc1ccccc1-n1nc(C(F)(F)F)cc1-c1ccc2c(c1)NC(=O)CO2` [Example 82, 6-(1-o-tolyl-3-(trifluoromethyl)-1H-pyrazol-5-yl)-2H-benzo[b][1,4]oxazin-3(4H)-one]: the inhibition at 10 µM was no less than 70%.

Consider `Cc1cc(Cl)ccc1-n1nc(C(F)(F)F)cc1-c1ccc2c(c1)NC(=O)CO2` [Example 86, 6-(1-(4-chloro-2-methylphenyl)-3-(trifluoromethyl)-1H-pyrazol-5-yl)-2H-benzo[b][1,4]oxazin-3(4H)-one], for which the inhibition at 10 µM is no less than 70%.

For the compound `Cc1ccc(C)c(-n2nc(C(F)(F)F)cc2-c2ccc3c(c2)NC(=O)CO3)c1` [Example 93, 6-(1-(2,5-dimethylphenyl)-3-(trifluoromethyl)-1H-pyrazol-5-yl)-2H-benzo[b][1,4]oxazin-3(4H)-one], the inhibition at 10 µM is no less than 70%.

Turning to `O=C1COc2ccc(-c3cc(C(F)(F)F)nn3-c3ccccc3)cc2N1` [Example 96, 6-(1-Phenyl-3-(trifluoromethyl)-1H-pyrazol-5-yl)-2H-benzo[b][1,4]oxazin-3(4H)-one], the inhibition at 10 µM was no less than 70%.

As to `O=C1COc2ccc(-c3cc(C(F)(F)C(F)(F)F)nn3-c3ccc(F)cc3)cc2N1` [Example 100, 6-(1-(4-Fluorophenyl)-3-(perfluoroethyl)-1H-pyrazol-5-yl)-2H-benzo[b][1,4]oxazin-3(4H)-one], the inhibition at 10 µM was no less than 70%.

In the case of `Cc1cc(F)ccc1-n1nc(C(F)(F)F)cc1-c1ccc2c(c1)NC(=O)CO2` [Example 107, 6-(1-(4-fluoro-2-methylphenyl)-3-(trifluoromethyl)-1H-pyrazol-5-yl)-2H-benzo[b][1,4]oxazin-3(4H)-one], the inhibition at 10 µM was no less than 70%.

With `Cc1cc(F)ccc1-n1nc(C(F)(F)F)cc1-c1cc(F)c2c(c1)NC(=O)CO2` [Example 108, 8-fluoro-6-(1-(4-fluoro-2-methylphenyl)-3-(trifluoromethyl)-1H-pyrazol-5-yl)-2H-benzo[b][1,4]oxazin-3(4H)-one], the inhibition at 10 µM was no less than 70%.

Take `Cc1cc(F)ccc1-n1nc(C(F)(F)F)cc1-c1cc(C)c2c(c1)NC(=O)CO2` [Example 110, 6-(1-(4-fluoro-2-methylphenyl)-3-(trifluoromethyl)-1H-pyrazol-5-yl)-8-methyl-2H-benzo[b][1,4]oxazin-3(4H)-one]: the inhibition at 10 µM is no less than 70%.

Consider `O=C1COc2c(Cl)cc(C3=Cn4ccnc4SC3c3ccc(F)cc3)cc2N1` (centres unmarked) [Example 118, 8-chloro-6-[7-(4-fluorophenyl)-7H-imidazo[2,1-b][1,3]thiazin-6-yl]-2H-1,4-benzoxazin-3(4H)-one], for which the inhibition at 10 µM is no less than 70%.

As to `N#Cc1ccc2c(c1)SC(c1ccccc1)C(c1ccc3c(c1)NC(=O)CO3)=C2` (centres unmarked) [Example 130, 3-(3-oxo-3,4-dihydro-2H-1,4-benzoxazin-6-yl)-2-phenyl-2H-thiochromene-7-carbonitrile], the inhibition at 10 µM was no less than 70%.

As to `O=C1COc2ccc(C3=Cc4ccccc4SC3c3ccc(F)cc3)cc2N1` (centres unmarked) [Example 158, 6-[2-(4-fluorophenyl)-2H-thiochromen-3-yl]-2H-1,4-benzoxazin-3(4H)-one], the inhibition at 10 µM was no less than 70%.

For the compound `Cc1cc(C2=Nn3cnnc3SC2c2ccc(F)cc2)cc2c1OCC(=O)N2` (centres unmarked) [Example 185, 6-[7-(4-fluorophenyl)-7H-[1,2,4]triazolo[3,4-b][1,3,4]thiadiazin-6-yl]-8-methyl-2H-1,4-benzoxazin-3(4H)-one], the inhibition at 10 µM was no less than 70%.

`O=C1COc2c(F)cc(C3=Nn4cnnc4SC3c3ccc(F)cc3)cc2N1` (centres unmarked) [Example 195, 8-fluoro-6-[7-(4-fluorophenyl)-7H-[1,2,4]triazolo[3,4-b][1,3,4]thiadiazin-6-yl]-2H-1,4-benzoxazin-3(4H)-one]: the inhibition at 10 µM was no less than 70%.

Regarding `Cc1cc(F)ccc1-n1nc(C(F)(F)F)cc1-c1cc(C)c2c(n1)NC(=O)CO2` [Example 255, 6-[1-(4-fluoro-2-methylphenyl)-3-(trifluoromethyl)-1H-pyrazol-5-yl]-8-methyl-2H-pyrido[3,2-b][1,4]oxazin-3(4H)-one], the inhibition at 10 µM is no less than 70%.

`Cc1nn(C)c(-c2ccc3c(c2)NC(=O)CO3)c1-c1ccccc1` [Example 288, 6-(1,3-dimethyl-4-phenyl-1H-pyrazol-5-yl)-2H-benzo[b][1,4]oxazin-3(4H)-one]: the inhibition at 10 µM was no less than 70%.

Regarding `Cc1cc(F)ccc1-n1nc(C(C)(F)F)cc1-c1cc(C)c2c(c1)NC(=O)CO2` [Example 310, 6-(3-(1,1-Difluoroethyl)-1-(4-fluoro-2-methylphenyl)-1H-pyrazol-5-yl)-8-methyl-2H-benzo[b][1,4]oxazin-3(4H)-one], the inhibition at 10 µM is no less than 70%.

Test system in another data set: not given
Assay: not given
Conditions: not given
Broadly, the melting point is the temperature, or range, at which the solid turns liquid. For the compound `O=C1COc2ccc(C3=Cc4ccccc4[S+]([O-])C3c3ccccc3)cc2N1` (centres unmarked) [Example 22, 6-(1-oxido-2-phenyl-2H-thiochromen-3-yl)-2H-1,4-benzoxazin-3(4H)-one], the melting point was found to be 228 °C.
